Measured values: patent publication US9505765B2, “4-alkoxy/aralkoxy-5-substituted-pyrrolopyrimidine compounds as TAK1 inhibitors in disease treatment” (Confluence Life Sciences Inc., priority 2012, dated 2016)

tested on: A549 cells; experiment: IL-1β stimulated IL-6 Production in A549 cells; format: cell-based; details: Homo sapiens, 1 ng/ml rhIL1β, 18 hrs, read-out: IL-6 Production IC
Method: IL-1β stimulated IL-6 Production in A549 cells: The cellular efficacy of compound candidates is determined using the human lung epithelial cell line A549 (ATCC #CCL-185), based upon the methods of Wheeler et al. (2004) J. Nutrition 134, 1039-1044, and Eda et al. (2011) Cell Biol. Int. 35, 355-358. A549 cells produce a number of cytokines (IL6, IL8 and TNFα) in response to stimulation with IL1β. To induce the production of inflammatory mediators, A549 cells are plated at a final concentration of 3×10^5 cells/well of a 96 well flat bottom plate in F12-K medium supplemented with 10% fetal bovine serum, 100 units/ml penicillin and 100 μg/ml streptomycin (Gibco BRL Life Technologies). Cells are treated with or without inhibitors for 3 hrs then stimulated with 1 ng/ml rhIL1β (R & D Systems) for an additional 18 hrs at 37° C. with 5% CO2. The supernatants are removed and stored at −20° C. until they are to be assayed. The levels of inflammatory mediators are determined using commercial MSD cytokine kits (Meso Scale Discovery) as per the manufacturer's instructions. Standard curves are based on 7 steps of 4× serial dilutions, with a wide dynamic range of 10000 pg/ml to 2.4 pg/ml, and the blank in triplicate. Lower limit of detection (LLOD) is calculated at the commonly used 3× the standard deviation of the blank.
Compounds were tested in accordance with the above described assay, yielding the values described below: […]

Row | SMILES | IC50 [nM]
1 | CC(C)COc1ncnc2[nH]cc(C(=O)CCl)c12 [Example 23, 2-chloro-1-(4-isobutoxy-7H-pyrrolo[2,3-d]pyrimidin-5-yl)ethanone] | 12000
2 | CC(C)COc1ncnc2[nH]cc(/C=C/C(N)=O)c12 [Example 38, (E)-3-(4-isobutoxy-7H-pyrrolo[2,3-d]pyrimidin-5-yl)acrylamide] | 85
3 | CNC(=O)/C=C/c1c[nH]c2ncnc(OCC(C)C)c12 [Example 39, (E)-3-(4-isobutoxy-7H-pyrrolo[2,3-d]pyrimidin-5-yl)-N-methylacrylamide] | 43
4 | N#C/C=C/c1c[nH]c2ncnc(OCc3ccccc3)c12 [Example 93, (E)-3-(4-benzyloxy-7H-pyrrolo[2,3-d]pyrimidin-5-yl)-acrylonitrile] | 2200
5 | CCC(=O)/C=C/c1c[nH]c2ncnc(OCC(C)C)c12 [Example 175, (E)-1-(4-isobutoxy-7H-pyrrolo[2,3-d]pyrimidin-5-yl)pent-1-en-3-one] | 990
6 | COC(=O)/C(C)=C/c1c[nH]c2ncnc(OCC(C)C)c12 [Example 177, (E)-methyl 3-(4-isobutoxy-7H-pyrrolo[2,3-d]pyrimidin-5-yl)-2-methylacrylate] | 620
7 | CCNC(=O)/C=C/c1c[nH]c2ncnc(OCC(C)C)c12 [Example 179, (E)-N-ethyl-3-(4-isobutoxy-7H-pyrrolo[2,3-d]pyrimidin-5-yl)acrylamide] | 87
8 | CC(C)COc1ncnc2[nH]cc(/C=C/C(=O)NCC3CC3)c12 [Example 180, (E)-N-(cyclopropylmethyl)-3-(4-isobutoxy-7H-pyrrolo[2,3-d]pyrimidin-5-yl)acrylamide] | 630
9 | CC(C)COc1ncnc2[nH]cc(/C=C/C(=O)NC3CC3)c12 [Example 181, (E)-N-cyclopropyl-3-(4-isobutoxy-7H-pyrrolo[2,3-d]pyrimidin-5-yl)acrylamide] | 180
10 | CC(C)COc1ncnc2[nH]cc(/C=C/C(=O)NC[C@H](C)O)c12 [Example 182, (S,E)-N-(2-hydroxypropyl)-3-(4-isobutoxy-7H-pyrrolo[2,3-d]pyrimidin-5-yl)acrylamide] | 3400
11 | CC(C)COc1ncnc2[nH]cc(/C=C/C(=O)NC[C@@H](C)O)c12 [Example 183, (R,E)-N-(2-hydroxypropyl)-3-(4-isobutoxy-7H-pyrrolo[2,3-d]pyrimidin-5-yl)acrylamide] | 12000
12 | CC(C)COc1ncnc2[nH]cc(/C=C/C(=O)N(C)C)c12 [Example 184, (E)-3-(4-isobutoxy-7H-pyrrolo[2,3-d]pyrimidin-5-yl)-N,N-dimethylacrylamide] | 190
13 | CC(C)COc1ncnc2[nH]cc(C#CC(N)=O)c12 [Example 186, 3-(4-isobutoxy-7H-pyrrolo[2,3-d]pyrimidin-5-yl)propiolamide] | 850

same assay, conditions: Homo sapiens, 5 μM compound, 1 ng/ml rhIL1β, 18 hrs, read-out: IL-6 Production % Control 5 μM

Row | SMILES | activity at 5 µM [%]
14 | CC(C)COc1ncnc2[nH]cc(C(=O)CCl)c12 [Example 23, 2-chloro-1-(4-isobutoxy-7H-pyrrolo[2,3-d]pyrimidin-5-yl)ethanone] | 117
15 | CC(C)COc1ncnc2[nH]cc(/C=C/C(N)=O)c12 [Example 38, (E)-3-(4-isobutoxy-7H-pyrrolo[2,3-d]pyrimidin-5-yl)acrylamide] | 0
16 | CNC(=O)/C=C/c1c[nH]c2ncnc(OCC(C)C)c12 [Example 39, (E)-3-(4-isobutoxy-7H-pyrrolo[2,3-d]pyrimidin-5-yl)-N-methylacrylamide] | 0
17 | N#C/C=C/c1c[nH]c2ncnc(OCc3ccccc3)c12 [Example 93, (E)-3-(4-benzyloxy-7H-pyrrolo[2,3-d]pyrimidin-5-yl)-acrylonitrile] | 21
18 | CCC(=O)/C=C/c1c[nH]c2ncnc(OCC(C)C)c12 [Example 175, (E)-1-(4-isobutoxy-7H-pyrrolo[2,3-d]pyrimidin-5-yl)pent-1-en-3-one] | 3
19 | COC(=O)/C(C)=C/c1c[nH]c2ncnc(OCC(C)C)c12 [Example 177, (E)-methyl 3-(4-isobutoxy-7H-pyrrolo[2,3-d]pyrimidin-5-yl)-2-methylacrylate] | 0
20 | CCNC(=O)/C=C/c1c[nH]c2ncnc(OCC(C)C)c12 [Example 179, (E)-N-ethyl-3-(4-isobutoxy-7H-pyrrolo[2,3-d]pyrimidin-5-yl)acrylamide] | 0
21 | CC(C)COc1ncnc2[nH]cc(/C=C/C(=O)NCC3CC3)c12 [Example 180, (E)-N-(cyclopropylmethyl)-3-(4-isobutoxy-7H-pyrrolo[2,3-d]pyrimidin-5-yl)acrylamide] | 2
22 | CC(C)COc1ncnc2[nH]cc(/C=C/C(=O)NC3CC3)c12 [Example 181, (E)-N-cyclopropyl-3-(4-isobutoxy-7H-pyrrolo[2,3-d]pyrimidin-5-yl)acrylamide] | 1
23 | CC(C)COc1ncnc2[nH]cc(/C=C/C(=O)NC[C@H](C)O)c12 [Example 182, (S,E)-N-(2-hydroxypropyl)-3-(4-isobutoxy-7H-pyrrolo[2,3-d]pyrimidin-5-yl)acrylamide] | 36
24 | CC(C)COc1ncnc2[nH]cc(/C=C/C(=O)NC[C@@H](C)O)c12 [Example 183, (R,E)-N-(2-hydroxypropyl)-3-(4-isobutoxy-7H-pyrrolo[2,3-d]pyrimidin-5-yl)acrylamide] | 78
25 | CC(C)COc1ncnc2[nH]cc(/C=C/C(=O)N(C)C)c12 [Example 184, (E)-3-(4-isobutoxy-7H-pyrrolo[2,3-d]pyrimidin-5-yl)-N,N-dimethylacrylamide] | 1
26 | CC(C)COc1ncnc2[nH]cc(C#CC(N)=O)c12 [Example 186, 3-(4-isobutoxy-7H-pyrrolo[2,3-d]pyrimidin-5-yl)propiolamide] | 1

same assay, conditions: Homo sapiens, 50 μM compound, 1 ng/ml rhIL1β, 18 hrs, read-out: IL-6 Production % Control 50 μM

Row | SMILES | activity at 50 µM [%]
27 | CC(C)COc1ncnc2[nH]cc(C(=O)CCl)c12 [Example 23, 2-chloro-1-(4-isobutoxy-7H-pyrrolo[2,3-d]pyrimidin-5-yl)ethanone] | 0
28 | CC(C)COc1ncnc2[nH]cc(/C=C/C(N)=O)c12 [Example 38, (E)-3-(4-isobutoxy-7H-pyrrolo[2,3-d]pyrimidin-5-yl)acrylamide] | 0
29 | CNC(=O)/C=C/c1c[nH]c2ncnc(OCC(C)C)c12 [Example 39, (E)-3-(4-isobutoxy-7H-pyrrolo[2,3-d]pyrimidin-5-yl)-N-methylacrylamide] | 0
30 | N#C/C=C/c1c[nH]c2ncnc(OCc3ccccc3)c12 [Example 93, (E)-3-(4-benzyloxy-7H-pyrrolo[2,3-d]pyrimidin-5-yl)-acrylonitrile] | 15
31 | CCC(=O)/C=C/c1c[nH]c2ncnc(OCC(C)C)c12 [Example 175, (E)-1-(4-isobutoxy-7H-pyrrolo[2,3-d]pyrimidin-5-yl)pent-1-en-3-one] | 0
32 | COC(=O)/C(C)=C/c1c[nH]c2ncnc(OCC(C)C)c12 [Example 177, (E)-methyl 3-(4-isobutoxy-7H-pyrrolo[2,3-d]pyrimidin-5-yl)-2-methylacrylate] | 0
33 | CCNC(=O)/C=C/c1c[nH]c2ncnc(OCC(C)C)c12 [Example 179, (E)-N-ethyl-3-(4-isobutoxy-7H-pyrrolo[2,3-d]pyrimidin-5-yl)acrylamide] | 0
34 | CC(C)COc1ncnc2[nH]cc(/C=C/C(=O)NCC3CC3)c12 [Example 180, (E)-N-(cyclopropylmethyl)-3-(4-isobutoxy-7H-pyrrolo[2,3-d]pyrimidin-5-yl)acrylamide] | 0
35 | CC(C)COc1ncnc2[nH]cc(/C=C/C(=O)NC3CC3)c12 [Example 181, (E)-N-cyclopropyl-3-(4-isobutoxy-7H-pyrrolo[2,3-d]pyrimidin-5-yl)acrylamide] | 0
36 | CC(C)COc1ncnc2[nH]cc(/C=C/C(=O)NC[C@H](C)O)c12 [Example 182, (S,E)-N-(2-hydroxypropyl)-3-(4-isobutoxy-7H-pyrrolo[2,3-d]pyrimidin-5-yl)acrylamide] | 1
37 | CC(C)COc1ncnc2[nH]cc(/C=C/C(=O)NC[C@@H](C)O)c12 [Example 183, (R,E)-N-(2-hydroxypropyl)-3-(4-isobutoxy-7H-pyrrolo[2,3-d]pyrimidin-5-yl)acrylamide] | 1
38 | CC(C)COc1ncnc2[nH]cc(/C=C/C(=O)N(C)C)c12 [Example 184, (E)-3-(4-isobutoxy-7H-pyrrolo[2,3-d]pyrimidin-5-yl)-N,N-dimethylacrylamide] | 0
39 | CC(C)COc1ncnc2[nH]cc(C#CC(N)=O)c12 [Example 186, 3-(4-isobutoxy-7H-pyrrolo[2,3-d]pyrimidin-5-yl)propiolamide] | 0

target: TAK1-TAB1 (Homo sapiens (Human), UniProt O43318); experiment: TAK1-TAB1 competitive binding assay (LanthaScreen), without pre-incubation; details: 10 nM TAK1-TAB1, 100 nM kinase tracer-236, read-out: TAK1-TAB1 Inhibition IC50
Excerpt: TAK1-TAB1 Binding Inhibitory Potency: The ability of candidate compounds to interact with TAK1-TAB1 is quantitated by a competitive binding assay using the LanthaScreen technology developed by Life Technologies. This assay is based on the binding of a proprietary, Alexa Fluor® 647-labeled, ATP-competitive kinase inhibitor (kinase tracer-236) to the TAK1-TAB1 construct in presence of a europium-conjugated antibody, resulting in a FRET (fluorescence resonance energy transfer) signal. Displacement of the kinase tracer by compound results in a lower emission ratio upon excitation of the europium chelate. Candidate compounds are designed as potential irreversible inhibitors of TAK1-TAB1, capable of ligating to an active site cysteine residue. The time dependent nature of irreversible inhibition is investigated by performing the binding assay with and without a pre-incubation of compound and TAK1-TAB1.
The inhibitory potency of candidate compounds is measured in 20 mM HEPES pH 7.5, 10 mM MgCl2, 0.01% BSA, 0.0005% Tween-20, and 2% DMSO in the presence of 10 nM TAK1-TAB1, 2 nM Eu-anti-his antibody, and 100 nM kinase tracer-236 using a 384-well plate format. Background signal is defined in the absence of TAK1-TAB1 and uninhibited signal is defined in the presence of vehicle (2% DMSO) alone. Compounds were evaluated in an 11 point dose-response ranging from 20 μM to 0.34 nM. The binding assays are performed under two conditions to evaluate time dependence of inhibition. For the pre-incubation assay, TAK1-TAB1 and Eu-anti-his antibody are preincubated with compound or vehicle for two hours prior to the addition of kinase tracer. The non-preincubated assay is run in which TAK1-TAB1 and Eu-anti-his antibody are added to a mixture of compound and kinase tracer. IC50 values of compounds are determined using a 4 parameter logistical fit of emission ratio as a function of the concentration of compound.
Compounds were tested in accordance with the above described assay, without pre-incubation, yielding the values described below: […]

TAK1-TAB1, sequence (O43318 other isoform, or with tags, fused parts or gaps): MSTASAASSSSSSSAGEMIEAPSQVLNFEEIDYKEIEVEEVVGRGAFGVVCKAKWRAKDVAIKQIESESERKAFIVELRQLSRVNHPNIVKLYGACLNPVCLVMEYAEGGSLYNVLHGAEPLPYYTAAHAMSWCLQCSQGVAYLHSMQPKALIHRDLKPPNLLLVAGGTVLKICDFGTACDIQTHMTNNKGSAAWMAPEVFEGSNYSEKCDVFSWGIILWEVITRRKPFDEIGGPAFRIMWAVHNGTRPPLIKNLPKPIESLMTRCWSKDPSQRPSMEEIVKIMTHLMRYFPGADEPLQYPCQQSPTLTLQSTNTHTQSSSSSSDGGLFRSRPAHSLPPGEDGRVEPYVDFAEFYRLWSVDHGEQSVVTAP

Row | SMILES | IC50 [nM]
40 | CC(C)COc1ncnc2[nH]cc(C(=O)CCl)c12 [Example 23, 2-chloro-1-(4-isobutoxy-7H-pyrrolo[2,3-d]pyrimidin-5-yl)ethanone] | 280
41 | CC(C)COc1ncnc2[nH]cc(/C=C/C(N)=O)c12 [Example 38, (E)-3-(4-isobutoxy-7H-pyrrolo[2,3-d]pyrimidin-5-yl)acrylamide] | 3.1
42 | CNC(=O)/C=C/c1c[nH]c2ncnc(OCC(C)C)c12 [Example 39, (E)-3-(4-isobutoxy-7H-pyrrolo[2,3-d]pyrimidin-5-yl)-N-methylacrylamide] | 41
43 | CCC(=O)/C=C/c1c[nH]c2ncnc(OCC(C)C)c12 [Example 175, (E)-1-(4-isobutoxy-7H-pyrrolo[2,3-d]pyrimidin-5-yl)pent-1-en-3-one] | 200
44 | CCNC(=O)/C=C/c1c[nH]c2ncnc(OCC(C)C)c12 [Example 179, (E)-N-ethyl-3-(4-isobutoxy-7H-pyrrolo[2,3-d]pyrimidin-5-yl)acrylamide] | 340
45 | CC(C)COc1ncnc2[nH]cc(/C=C/C(=O)NCC3CC3)c12 [Example 180, (E)-N-(cyclopropylmethyl)-3-(4-isobutoxy-7H-pyrrolo[2,3-d]pyrimidin-5-yl)acrylamide] | 380
46 | CC(C)COc1ncnc2[nH]cc(/C=C/C(=O)NC3CC3)c12 [Example 181, (E)-N-cyclopropyl-3-(4-isobutoxy-7H-pyrrolo[2,3-d]pyrimidin-5-yl)acrylamide] | 180
47 | CC(C)COc1ncnc2[nH]cc(/C=C/C(=O)NC[C@H](C)O)c12 [Example 182, (S,E)-N-(2-hydroxypropyl)-3-(4-isobutoxy-7H-pyrrolo[2,3-d]pyrimidin-5-yl)acrylamide] | 1600
48 | CC(C)COc1ncnc2[nH]cc(/C=C/C(=O)NC[C@@H](C)O)c12 [Example 183, (R,E)-N-(2-hydroxypropyl)-3-(4-isobutoxy-7H-pyrrolo[2,3-d]pyrimidin-5-yl)acrylamide] | 2500
49 | CC(C)COc1ncnc2[nH]cc(/C=C/C(=O)N(C)C)c12 [Example 184, (E)-3-(4-isobutoxy-7H-pyrrolo[2,3-d]pyrimidin-5-yl)-N,N-dimethylacrylamide] | 97
